Patent US7829526B2, “Cardioinhibitory/antihypertensive novel endogenous physiologically active peptide” (Japan Science and Technology Agency, priority 2004, dated 2010)

What was measured:
[1] = Cardioinhibitory or hypotensive activity of deletion variants and homologue (method not described); conditions: variants of SEQ ID No: 2
intact-rats = assay: Effect of synthesized peptide on intact anesthetized rats (blood pressure, heart rate, aortic flow); type: in vivo, rat; conditions: for hypotensive effect: anesthetized SD rats, synthetic peptide 10 nmol/kg intravenously
Protocol: Meanwhile, a peptide of the present invention consisting of the amino acid sequence shown by SEQ ID No: 2 determined in Example 1, was synthesized with the use of a peptide synthesizer (Shimadzu, PSSM-8), and tested in the following experiment. SD rats weighing 400 to 525 g were used as test animals.
SD rats were anesthetized by intraperitoneal pentobarbital sodium (50 mg/kg), and a synthesized peptide was administered intravenously via a catheter placed in the […]. Heart rates and blood pressure were measured according to a method described previously (Nat Med 9: 1166-72, 2003) with the use of an electromagnetic flowmeter (MFV-1100, Nihon Koden). Further, a flowmeter was attached to the abdominal aorta, and aortic flow was measured according to the above method described previously. Synthetic peptides (10 nmol/kg) were administered intravenously over a period of 15 seconds or more, and systolic pressure (SP), diastolic pressure (DP) mean aortic pressure (MAP), heart rate (HR) were measured. A hypotensive effect of a synthetic peptide of the present invention was observed.

[2] = tested on: isolated, perfused rat hearts; assay: Isolated heart working model (isolated perfused rat heart); conditions: for cardiac contractility (inotropism): rat hearts, direct action on heart
Protocol: Isolated heart working model was used for estimating direct effect on cardiac muscle, according to a method described previously (Nat Med 9:[…], 2003). A heart isolated from a rat was set on an isolated heart perfusion apparatus (Primetech Corporation, IPH-W2) which was perfused with a Krebs Henseleit Buffer at 37° C., and stabilized. Subsequently, synthetic peptides were administered (10^−8 mol/l). Then, HR, SP, DP, MAP and aortic flow (AF) were measured over a period of 15 min. Coronary flow (CF) was measured by collecting coronary sinus effluent before and at 5 and 10 min after administering the peptide agent. Based on the obtained data, cardiac output (CO) was calculated by adding AF and CF, whereas stroke volume (SV) was obtained by dividing CO by HR, and then normalized by the heart volume of each rat.

[3] = tested on: isolated rat aortic preparation; conditions: intact and endothelium-detached preparations, unconstricted or constricted with phenylephrine; cited from earlier work
SD rats = conditions: cited from earlier work; for hypotensive and bradycardiac effects: 1 min after intravenous administration, SD rats under pentobarbital anesthesia; for dose dependence of hypotensive and bradycardiac effects: salusin-α 1-10 nmol/kg, salusin-β 0.1-1 nmol/kg
[4] = intravenous administration into anesthetized rats

Row | Substance | cardioinhibitory activity or hypotensive activity [1] | direct effect on isolated rat aorta [3] | hypotensive and bradycardiac effects (SD rats) | hypotensive effects after pretreatment with NO synthase inhibitor L-NAME (SD rats) | dose dependence of hypotensive and bradycardiac effects (SD rats) | further results
1 | (1-20): SEQ ID No: 2 wherein 4 amino acids at C-terminal end are deleted (AIFIFISNTGGKQINQVALE; listed as Homo sapiens) | potent cardioinhibitory activity or hypotensive activity is maintained | – | – | – | – | –
2 | (2-13): SEQ ID No: 2 wherein 11 amino acids at C-terminal end and 1 amino acid at N-terminal end are deleted (IFIFISNTGGKQ; listed as Homo sapiens) | the activity is somewhat decreased | – | – | – | – | –
3 | (5-24): SEQ ID No: 2 wherein 4 amino acids at N terminal end are deleted (FISNTGGKQINQVALEAWRS; listed as Homo sapiens) | potent cardioinhibitory activity or hypotensive activity is maintained | – | – | – | – | –
4 | AIFIFISNTGGKQINQVALEAWRS (listed as Homo sapiens) [peptide of the present invention, human-derived 24 amino acid peptide translated from TOR2A mRNA] | – | – | – | – | – | hypotensive effect (intact-rats; FIG. 1, listed as This peptide): significant hypotensive activity; hypotensive effect (intact-rats; FIG. 1, listed as synthetic peptide of the present invention): observed; aortic blood flow (intact-rats; [4]): reduced; heart rates (intact-rats; [4]): reduced; aortic pressure (intact-rats; intravenous administration into anesthetized rats, FIG. 1): marked lowering; negative inotropic and chronotropic effects (intact-rats; rank among endogenous peptides, FIG. 2): most potent endogenous peptide identified thus far; coronary flow ([2]; isolated rat heart, peptide 10^−8 mol/l, before and at 5 and 10 min, FIG. 2): lowering coronary flow; cardiac contractility (inotropism) [2]: potently reduce cardiac contractility; cardiac contractility (inotropism) ([2]; listed as This peptide): negative inotropism
5 | salusin-α: related peptide of 28 amino acids biosynthesized by processing of preprosalusin (SGALPPAPAAPRPALRAQRAGPAGPGAK; salusin-alpha) | – | did not show any direct effect | rapid hypotensive and bradycardiac effects | not affected | dose-responsive | –
6 | salusin-β: related peptide of 20 amino acids biosynthesized by processing of preprosalusin (AIFIFIRWLLKLGHHGRAPP; salusin-beta) | – | did not show any direct effect | rapid hypotensive and bradycardiac effects | not affected | dose-responsive | potency compared to salusin-α (SD rats; hypotensive and bradycardiac effects): approximately 10 fold
